Source: patent US6498176B1, “3-(anilinomethylene) oxindoles as protein tyrosine kinase and protein serine/threonine kinase inhibitors” (SmithKlineBeecham Corporation, priority 1999, dated 2002)
pIC50: −log10 of the molar value.

Assays:
[1] = tested on: human umbilical vein endothelial cells (HUVECs); assay: HUVEC BrdU incorporation, bFGF stimulation; format: cell-based; conditions: 0.3 ng/ml bFGF, 72 hrs; read-out: Inhibition of BrdU incorporation in HUVEC cells, BFGF Stimulation (IC50)
[2] = tested on: human umbilical vein endothelial cells (HUVECs); assay: HUVEC BrdU incorporation, VEGF stimulation; format: cell-based; conditions: 20 ng/ml VEGF, 72 hrs; read-out: Inhibition of BrdU incorporation in HUVEC cells, VEGF stimulation (IC50)
[3] = biological target: T1, c-fms intracellular domain (Homo sapiens, UniProt P07333); assay: c-fms protein kinase assay; format: biochemical; conditions: 1.7 μM ATP, 90 min at room temperature; read-out: Kinase inhibition c-fms (IC50)
T1 construct: The c-fms intracellular domain was expressed from a baculovirus expression system, as an amino-terminal GST fusion protein; GST (N); made in house; host or cells: baculovirus expression system
T1 sequence (P07333 539-972 limits assumed): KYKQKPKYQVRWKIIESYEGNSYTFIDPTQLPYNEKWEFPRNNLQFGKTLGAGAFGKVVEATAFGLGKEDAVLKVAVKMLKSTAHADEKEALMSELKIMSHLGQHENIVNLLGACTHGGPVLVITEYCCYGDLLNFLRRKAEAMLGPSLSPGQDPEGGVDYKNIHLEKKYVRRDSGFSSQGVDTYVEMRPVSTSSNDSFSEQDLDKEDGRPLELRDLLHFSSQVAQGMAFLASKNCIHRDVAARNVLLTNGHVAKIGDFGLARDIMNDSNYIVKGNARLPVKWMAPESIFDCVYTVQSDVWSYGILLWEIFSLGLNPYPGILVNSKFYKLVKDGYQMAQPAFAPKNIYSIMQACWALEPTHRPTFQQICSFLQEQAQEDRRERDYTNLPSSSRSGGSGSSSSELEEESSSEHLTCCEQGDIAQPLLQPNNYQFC
Experimental: c-fms protein kinase assays utilized the peptide substrate, biotin-[…]-NH2, as the phosphoryl group acceptor. The c-fms intracellular domain was expressed from a baculovirus expression system, as an amino-terminal GST fusion protein, and purified to homogeneity using Glutathione agarose from Sigma Chemical Co. Maximum activation of the enzyme was achieved by preactivation at room temperature for 120 min in the presence of 100 μM ATP and 15 mM MgCl2, This enzyme stock was diluted to 150 nM prior to using in the assay. Typically assays were performed in white, opaque, 96-well plates in a 45 ul assay volume including 15 ul 6% DMSO, with or without compounds, 15 ul of the preactivated, diluted enzyme, and 15 ul of a substrate mixture. Reactions contained 50 mM HEPES, pH 7.5, 1.7 μM ATP, 15 mM MgCl2, 3 μM peptide, 2.5 mM DTT, 50 mM NaCl and 0.15 uCi/assay [^32P]ATP. The controls were reactions in the presence (negative controls) or absence (positive controls) of 50 mM EDTA. Reactions were allowed to proceed for 90 min at room temperature. The reaction products were quantified using Scintillation Proximity technolgy. […] Plates were sealed and counted in a Packard Topcount scintillation counter. […]

pIC50 [3]: < 7.00
Compound: O=C1Nc2ccc3ncccc3c2/C1=C/Nc1ccc(CCO)cc1 [Example 32]
pIC50 [1]: 5.30 to 5.96 | pIC50 [2]: 6.30 to 8.00
